Assay results as given in patent US20230192705A1, “SHP2 INHIBITORS, COMPOSITIONS AND USES THEREOF” (Betta Pharmaceuticals Co., Ltd, priority 2020, published 2023).

Target: T1, SHP2 (Homo sapiens, UniProt Q06124)
T1 sequence (Q06124 1-593): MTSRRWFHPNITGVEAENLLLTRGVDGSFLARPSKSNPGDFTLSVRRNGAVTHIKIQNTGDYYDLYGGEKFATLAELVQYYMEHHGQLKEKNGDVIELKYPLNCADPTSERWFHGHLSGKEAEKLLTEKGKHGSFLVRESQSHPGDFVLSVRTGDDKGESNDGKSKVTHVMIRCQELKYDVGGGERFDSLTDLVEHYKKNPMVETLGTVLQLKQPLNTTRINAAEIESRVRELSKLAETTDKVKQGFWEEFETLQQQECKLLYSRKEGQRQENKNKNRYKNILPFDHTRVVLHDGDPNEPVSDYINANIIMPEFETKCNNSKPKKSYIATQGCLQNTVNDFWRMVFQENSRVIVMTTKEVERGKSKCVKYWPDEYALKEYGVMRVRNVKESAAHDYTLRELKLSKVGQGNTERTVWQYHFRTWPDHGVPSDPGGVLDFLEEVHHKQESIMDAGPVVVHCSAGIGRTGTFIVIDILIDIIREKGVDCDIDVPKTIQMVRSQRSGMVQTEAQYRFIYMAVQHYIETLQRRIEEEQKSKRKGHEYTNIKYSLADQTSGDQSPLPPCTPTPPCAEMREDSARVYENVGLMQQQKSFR
Test: SHP2 allosteric inhibitor enzyme activity assay (DiFMUP fluorescence)
Assay type: biochemical
Settings: class symbols
Method in brief: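 SHP2 activated by 0.5 μM IRS1_pY1172(dPEG8)pY1222 peptide, 0.2 ng enzyme per well, 1 h at room temperature with compound (1 μM top, 3-fold series), then DiFMUP substrate 1 h. Buffer: 60 mM HEPES, 75 mM NaCl, 75 mM KCl, 0.05% BRIJ-35, 1 mM EDTA, 5 mM DTT. Fluorescence ex 340/em 450 nm; IC50 by variable-slope fit.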

Structure (SMILES)	IC50 [nM]
CN1c2ccccc2C(c2n[nH]c3nc(N4CCC5(CC4)Cc4ccccc4[C@H]5N)[nH]c(=O)c23)=CS1(=O)=O [Example 184, (S)-6-(1-amino-1,3-dihydrospiro[indene-2,4′-piperidin]-1′-yl)-3-(1-methyl-2,2-dioxido-1H-benzo[c][1,2]thiazin-4-yl)-1,5-dihydro-4H-pyrazolo[3,4-d]pyrimidin-4-one]	≤ 20
N[C@@H]1c2ccccc2CC12CCN(c1nc3[nH]nc(C4=C(F)CCc5ncccc54)c3c(=O)[nH]1)CC2 [Example 186, (S)-6-(1-amino-1,3-dihydrospiro[indene-2,4′-piperidin]-1′-yl)-3-(6-fluoro-7,8-dihydroquinolin-5-yl)-1,5-dihydro-4H-pyrazolo[3,4-d]pyrimidin-4-one]	≤ 20
N[C@@H]1c2ccccc2CC12CCN(c1nc3[nH]nc(C4=C(F)CCc5nc(C(F)(F)F)ccc54)c3c(=O)[nH]1)CC2 [Example 187, (S)-6-(1-amino-1,3-dihydrospiro[indene-2,4′-piperidin]-1′-yl)-3-(6-fluoro-2-(trifluoromethyl)-7,8-dihydroquinolin-5-yl)-1,5-dihydro-4H-pyrazolo[3,4-d]pyrimidin-4-one]	≤ 20
N[C@@H]1c2ccccc2CC12CCN(c1nc3[nH]nc(C4=C(F)CCc5nc(Cl)ccc54)c3c(=O)[nH]1)CC2 [Example 188, (S)-6-(1-amino-1,3-dihydrospiro[indene-2,4′-piperidin]-1′-yl)-3-(2-chloro-6-fluoro-7,8-dihydroquinolin-5-yl)-1,5-dihydro-4H-pyrazolo[3,4-d]pyrimidin-4-one]	≤ 20
CC1(C)Cc2nc(C(F)(F)F)ccc2C(c2n[nH]c3nc(N4CCC5(CC4)Cc4ccccc4[C@H]5N)[nH]c(=O)c23)=C1F [Example 189, (S)-6-(1-amino-1,3-dihydrospiro[indene-2,4′-piperidin]-1′-yl)-3-(6-fluoro-7,7-dimethyl-2-(trifluoromethyl)-7,8-dihydroquinolin-5-yl)-1,5-dihydro-4H-pyrazolo[3,4-d]pyrimidin-4-one]	≤ 20
CC1(C)Cc2ncccc2C(c2n[nH]c3nc(N4CCC5(CC4)Cc4ccccc4[C@H]5N)[nH]c(=O)c23)=C1F [Example 190, (S)-6-(1-amino-1,3-dihydrospiro[indene-2,4′-piperidin]-1′-yl)-3-(6-fluoro-7,7-dimethyl-7,8-dihydroquinolin-5-yl)-1,5-dihydro-4H-pyrazolo[3,4-d]pyrimidin-4-one]	≤ 20
COc1ccc2c(c1)[C@@H](N)C1(CCN(c3nc4[nH]nc(C5(c6ccccc6)CC5)c4c(=O)[nH]3)CC1)C2 [Example 192, (S)-6-(1-amino-6-methoxy-1,3-dihydrospiro[indene-2,4′-piperidin]-1′-yl)-3-(1-phenylcyclopropyl)-1,5-dihydro-4H-pyrazolo[3,4-d]pyrimidin-4-one]	≤ 20
N[C@@H]1c2nc(Cl)sc2CC12CCN(c1nc3[nH]nc(C4(c5ccccc5)CC4)c3c(=O)[nH]1)CC2 [Example 193, (S)-6-(4-amino-2-chloro-4,6-dihydrospiro[cyclopenta[d]thiazole-5,4′-piperidin]-1′-yl)-3-(1-phenylcyclopropyl)-1,5-dihydro-4H-pyrazolo[3,4-d]pyrimidin-4-one]	≤ 20
N[C@@H]1c2cc(Cl)ccc2CC12CCN(c1nc3[nH]nc(C4(c5ccccc5)CC4)c3c(=O)[nH]1)CC2 [Example 194, (S)-6-(1-amino-6-chloro-1,3-dihydrospiro[indene-2,4′-piperidin]-1′-yl)-3-(1-phenylcyclopropyl)-1,5-dihydro-4H-pyrazolo[3,4-d]pyrimidin-4-one]	≤ 20
N[C@@H]1c2cc(F)ccc2CC12CCN(c1nc3[nH]nc(C4(c5ccccc5)CC4)c3c(=O)[nH]1)CC2 [Example 195, (S)-6-(1-amino-6-fluoro-1,3-dihydrospiro[indene-2,4′-piperidin]-1′-yl)-3-(1-phenylcyclopropyl)-1,5-dihydro-4H-pyrazolo[3,4-d]pyrimidin-4-one]	≤ 20
CSc1ccc2c(c1)[C@@H](N)C1(CCN(c3nc4[nH]nc(C5(c6ccccc6)CC5)c4c(=O)[nH]3)CC1)C2 [Example 196, (S)-6-(1-amino-6-(methylthio)-1,3-dihydrospiro[indene-2,4′-piperidin]-1′-yl)-3-(1-phenylcyclopropyl)-1,5-dihydro-4H-pyrazolo[3,4-d]pyrimidin-4-one]	≤ 20
N#Cc1ccc2c(c1)[C@@H](N)C1(CCN(c3nc4[nH]nc(C5(c6ccccc6)CC5)c4c(=O)[nH]3)CC1)C2 [Example 197, (S)-1-amino-1′-(4-oxo-3-(1-phenylcyclopropyl)-4,5-dihydro-1H-pyrazolo[3,4-d]pyrimidin-6-yl)-1,3-dihydrospiro[indene-2,4′-piperidine]-6-carbonitrile]	≤ 20
N[C@@H]1Cc2ccccc2C12CCN(c1nc3[nH]nc(C4(c5ccccc5)CC4)c3c(=O)[nH]1)CC2 [Example 198, (R)-6-(2-amino-2,3-dihydrospiro[indene-1,4′-piperidin]-1′-yl)-3-(1-phenylcyclopropyl)-1,5-dihydro-4H-pyrazolo[3,4-d]pyrimidin-4-one]	20 to 60
N[C@@H]1Cn2nccc2C12CCN(c1nc3[nH]nc(C4(c5ccccc5)CC4)c3c(=O)[nH]1)CC2 [Example 199, (S)-6-(5′-amino-5′,6′-dihydrospiro[piperidine-4,4′-pyrrolo[1,2-b]pyrazol]-1-yl)-3-(1-phenylcyclopropyl)-1,5-dihydro-4H-pyrazolo[3,4-d]pyrimidin-4-one]	20 to 60
N[C@@H]1c2cccnc2CC12CCN(c1nc3[nH]nc(C4(c5ccccc5)CC4)c3c(=O)[nH]1)CC2 [Example 200, (S)-6-(5-amino-5,7-dihydrospiro[cyclopenta[b]pyridine-6,4′-piperidin]-1-yl)-3-(1-phenylcyclopropyl)-1,5-dihydro-4H-pyrazolo[3,4-d]pyrimidin-4-one]	≤ 20
N[C@@H]1c2ccccc2CC12CCN(c1nc3[nH]nc(C4(c5cccc(C6CC6)c5)CC4)c3c(=O)[nH]1)CC2 [Example 218, (S)-6-(1-amino-1,3-dihydrospiro[indene-2,4′-piperidin]-1′-yl)-3-(1-(3-cyclopropylphenyl)cyclopropyl)-1,5-dihydro-4H-pyrazolo[3,4-d]pyrimidin-4-one]	≤ 20
N[C@@H]1c2ccccc2CC12CCN(c1nc3[nH]nc(C4(c5ccncc5)CC4)c3c(=O)[nH]1)CC2 [Example 219, (S)-6-(1-amino-1,3-dihydrospiro[indene-2,4′-piperidin]-1′-yl)-3-(1-(pyridin-4-yl)cyclopropyl)-1,5-dihydro-4H-pyrazolo[3,4-d]pyrimidin-4-one]	≤ 20
N[C@@H]1c2ccccc2CC12CCN(c1nc3[nH]nc(C4(c5ccccc5F)CC4)c3c(=O)[nH]1)CC2 [Example 220, (S)-6-(1-amino-1,3-dihydrospiro[indene-2,4′-piperidin]-1′-yl)-3-(1-(2-fluorophenyl)cyclopropyl)-1,5-dihydro-4H-pyrazolo[3,4-d]pyrimidin-4-one]	≤ 20
CP(C)(=O)c1cccc(C2(c3n[nH]c4nc(N5CCC6(CC5)Cc5ccccc5[C@H]6N)[nH]c(=O)c34)CC2)c1 [Example 224, (S)-6-(1-amino-1,3-dihydrospiro[indene-2,4′-piperidin]-1′-yl)-3-(1-(3-(dimethylphosphoryl)phenyl)cyclo-propyl)-1,5-dihydro-4H-pyrazolo[3,4-d]pyrimidin-4-one]	≤ 20
CSc1cccc(C2(c3n[nH]c4nc(N5CCC6(CC5)Cc5ccccc5[C@H]6N)[nH]c(=O)c34)CC2)c1 [Example 225, (S)-6-(1-amino-1,3-dihydrospiro[indene-2,4′-piperidin]-1′-yl)-3-(1-(3-(methylthio)phenyl)cyclopropyl)-1,5-dihydro-4H-pyrazolo[3,4-d]pyrimidin-4-one]	≤ 20
N[C@@H]1c2ccccc2CC12CCN(c1nc3[nH]nc(C4(c5cccc(CO)c5)CC4)c3c(=O)[nH]1)CC2 [Example 226, (S)-6-(1-amino-1,3-dihydrospiro[indene-2,4′-piperidin]-1′-yl)-3-(1-(3-(hydroxymethyl)phenyl)cyclo-propyl)-1,5-dihydro-4H-pyrazolo[3,4-d]pyrimidin-4-one]	≤ 20
N[C@@H]1c2ccccc2CC12CCN(c1nc3[nH]nc(C4(c5cccc(OC6CC6)c5)CC4)c3c(=O)[nH]1)CC2 [Example 227, (S)-6-(1-amino-1,3-dihydrospiro[indene-2,4′-piperidin]-1′-yl)-3-(1-(3-cyclopropoxyphenyl)cyclopropyl)-1,5-dihydro-4H-pyrazolo[3,4-d]pyrimidin-4-one]	≤ 20
COc1ccc(C2(c3n[nH]c4nc(N5CCC6(CC5)Cc5ccccc5[C@H]6N)[nH]c(=O)c34)CC2)c(OC)c1 [Example 232, (S)-6-(1-amino-1,3-dihydrospiro[indene-2,4′-piperidin]-1′-yl)-3-(1-(2,4-dimethoxyphenyl)cyclopropyl)-1,5-dihydro-4H-pyrazolo[3,4-d]pyrimidin-4-one]	≤ 20
